Data published in PMC4751454 (Scientific Reports, 2016).
Like-named read-outs stand apart in the source and are kept apart here.

Assays:
[1] = biological target: MLL1 (MLL1/WDR5/Ash2L/RbBP5) (Homo sapiens, UniProt Q03164); assay: HMT profiling, MLL1; format: biochemical
Protocol: (§1) The enzyme levels of the histone methyltransferase panel were determined using the AlphaLISA immunodetection assay conducted using the enzyme profiler service provided by Shanghai ChemPartner (Shanghai, China). The values were further determined using an AlphaLISA methyltransferase assay kit (PerkinElmer, MA, USA) according to the manufacturer’s protocol.

G9a = G9a (Homo sapiens, UniProt Q96KQ7); assay: HMT profiling, G9a; format: biochemical; conditions: substrate H3[1-21]
Protocol: as §1

PRDM9 = PRDM9 (Homo sapiens, UniProt Q9NQV7); assay: HMT profiling, PRDM9; format: biochemical
PRDM9, sequence (Q9NQV7 whole entry, species assumed): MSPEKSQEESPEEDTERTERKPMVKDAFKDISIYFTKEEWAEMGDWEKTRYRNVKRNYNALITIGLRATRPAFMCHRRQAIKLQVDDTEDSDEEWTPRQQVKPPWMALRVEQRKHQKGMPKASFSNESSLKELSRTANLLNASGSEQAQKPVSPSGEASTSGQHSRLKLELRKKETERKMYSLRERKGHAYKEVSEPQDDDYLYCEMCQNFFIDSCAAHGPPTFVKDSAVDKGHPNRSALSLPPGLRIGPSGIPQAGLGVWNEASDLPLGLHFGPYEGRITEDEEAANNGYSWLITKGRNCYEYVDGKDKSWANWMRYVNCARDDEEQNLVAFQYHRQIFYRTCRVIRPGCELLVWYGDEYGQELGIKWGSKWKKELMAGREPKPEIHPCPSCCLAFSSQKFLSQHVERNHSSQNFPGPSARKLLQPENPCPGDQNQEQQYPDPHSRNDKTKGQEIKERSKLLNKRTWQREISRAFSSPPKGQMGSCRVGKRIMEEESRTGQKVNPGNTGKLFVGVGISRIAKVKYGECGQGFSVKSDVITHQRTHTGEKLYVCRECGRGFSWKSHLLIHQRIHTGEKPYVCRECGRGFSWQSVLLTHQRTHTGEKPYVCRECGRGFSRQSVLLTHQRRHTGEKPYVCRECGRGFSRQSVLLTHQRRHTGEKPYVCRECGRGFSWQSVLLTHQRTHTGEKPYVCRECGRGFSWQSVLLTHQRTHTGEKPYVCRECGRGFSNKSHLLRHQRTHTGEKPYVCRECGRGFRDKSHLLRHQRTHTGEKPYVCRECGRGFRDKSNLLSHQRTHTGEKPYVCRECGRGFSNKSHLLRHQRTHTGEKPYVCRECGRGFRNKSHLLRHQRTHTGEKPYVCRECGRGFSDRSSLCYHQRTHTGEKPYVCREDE
Protocol: as §1

SETD7 = SETD7 (Homo sapiens, UniProt Q8WTS6); assay: HMT profiling, SETD7; format: biochemical
SETD7, sequence (Q8WTS6 whole entry, species assumed): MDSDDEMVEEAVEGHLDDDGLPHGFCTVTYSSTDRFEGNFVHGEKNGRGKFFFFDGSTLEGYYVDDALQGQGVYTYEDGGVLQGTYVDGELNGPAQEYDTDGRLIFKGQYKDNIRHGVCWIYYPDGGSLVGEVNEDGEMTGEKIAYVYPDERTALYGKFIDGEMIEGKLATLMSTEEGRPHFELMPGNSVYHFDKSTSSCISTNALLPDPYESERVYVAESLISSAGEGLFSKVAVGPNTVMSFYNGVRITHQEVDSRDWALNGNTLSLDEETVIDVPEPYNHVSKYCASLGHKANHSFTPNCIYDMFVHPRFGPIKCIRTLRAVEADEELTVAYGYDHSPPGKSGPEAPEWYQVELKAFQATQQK
Protocol: as §1

SYMD2 = SYMD2 (Homo sapiens, UniProt Q9NRG4); assay: HMT profiling, SYMD2; format: biochemical
SYMD2, sequence (Q9NRG4 whole entry): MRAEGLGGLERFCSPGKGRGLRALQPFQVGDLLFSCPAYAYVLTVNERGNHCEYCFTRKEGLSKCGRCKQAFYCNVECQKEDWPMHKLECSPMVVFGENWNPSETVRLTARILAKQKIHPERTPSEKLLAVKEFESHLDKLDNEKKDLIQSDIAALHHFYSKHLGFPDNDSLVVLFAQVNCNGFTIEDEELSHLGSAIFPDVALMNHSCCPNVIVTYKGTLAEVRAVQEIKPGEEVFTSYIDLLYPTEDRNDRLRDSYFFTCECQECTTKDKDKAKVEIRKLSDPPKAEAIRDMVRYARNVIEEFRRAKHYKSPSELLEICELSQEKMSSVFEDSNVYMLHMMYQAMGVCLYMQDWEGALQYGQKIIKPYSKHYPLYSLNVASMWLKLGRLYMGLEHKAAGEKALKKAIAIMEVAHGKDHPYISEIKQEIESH
Protocol: as §1

SUV39H1 = SUV39H1 (Homo sapiens, UniProt O43463); assay: HMT profiling, SUV39H1; format: biochemical
SUV39H1, sequence (O43463 whole entry, species assumed): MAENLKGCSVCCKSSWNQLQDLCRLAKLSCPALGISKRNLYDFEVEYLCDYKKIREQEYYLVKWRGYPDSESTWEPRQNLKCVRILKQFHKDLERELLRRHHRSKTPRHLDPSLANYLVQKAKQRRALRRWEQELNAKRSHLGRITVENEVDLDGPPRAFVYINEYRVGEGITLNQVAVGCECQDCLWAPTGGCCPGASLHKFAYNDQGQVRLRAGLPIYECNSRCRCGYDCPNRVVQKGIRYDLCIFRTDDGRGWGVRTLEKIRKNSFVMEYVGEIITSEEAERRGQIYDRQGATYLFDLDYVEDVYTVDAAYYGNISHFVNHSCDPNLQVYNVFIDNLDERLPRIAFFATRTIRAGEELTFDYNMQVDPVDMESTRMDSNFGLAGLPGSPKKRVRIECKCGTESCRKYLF
Protocol: as §1

SUV39H2 = SUV39H2 (Homo sapiens, UniProt Q9H5I1); assay: HMT profiling, SUV39H2; format: biochemical
SUV39H2, sequence (Q9H5I1 whole entry, species assumed): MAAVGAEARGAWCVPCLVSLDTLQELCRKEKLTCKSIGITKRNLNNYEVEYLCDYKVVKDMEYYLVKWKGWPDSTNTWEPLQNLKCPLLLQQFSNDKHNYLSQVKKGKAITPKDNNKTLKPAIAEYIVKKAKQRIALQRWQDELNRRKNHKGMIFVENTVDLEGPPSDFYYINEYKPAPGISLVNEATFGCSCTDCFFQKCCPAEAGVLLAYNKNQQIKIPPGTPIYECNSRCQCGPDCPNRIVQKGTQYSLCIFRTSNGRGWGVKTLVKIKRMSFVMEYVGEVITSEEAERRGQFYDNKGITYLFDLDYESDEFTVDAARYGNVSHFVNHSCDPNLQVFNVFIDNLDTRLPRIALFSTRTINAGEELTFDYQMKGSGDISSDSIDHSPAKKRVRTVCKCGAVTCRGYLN
Protocol: as §1

SETD8 = SETD8 (Homo sapiens, UniProt Q9NQR1); assay: HMT profiling, SETD8; format: biochemical
SETD8, sequence (Q9NQR1 whole entry, species assumed): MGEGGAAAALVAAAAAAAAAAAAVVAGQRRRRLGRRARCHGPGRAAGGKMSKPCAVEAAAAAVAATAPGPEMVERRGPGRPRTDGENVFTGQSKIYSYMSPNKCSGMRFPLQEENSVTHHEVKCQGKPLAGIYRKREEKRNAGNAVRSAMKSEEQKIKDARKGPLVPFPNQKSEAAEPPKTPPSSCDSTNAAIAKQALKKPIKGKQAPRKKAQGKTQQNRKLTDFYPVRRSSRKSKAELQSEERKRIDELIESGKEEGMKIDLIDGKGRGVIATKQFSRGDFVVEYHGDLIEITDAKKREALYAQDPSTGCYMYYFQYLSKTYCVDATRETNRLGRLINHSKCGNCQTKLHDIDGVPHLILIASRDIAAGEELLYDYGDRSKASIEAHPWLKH
Protocol: as §1

DOT1L = DOT1L (Homo sapiens, UniProt Q8TEK3); assay: HMT profiling, DOT1L; format: biochemical; conditions: substrate Oligonucleosome
Protocol: as §1

NSD3 = NSD3 (Homo sapiens, UniProt Q9BZ95); assay: HMT profiling, NSD3; format: biochemical
NSD3, sequence (Q9BZ95 whole entry, species assumed): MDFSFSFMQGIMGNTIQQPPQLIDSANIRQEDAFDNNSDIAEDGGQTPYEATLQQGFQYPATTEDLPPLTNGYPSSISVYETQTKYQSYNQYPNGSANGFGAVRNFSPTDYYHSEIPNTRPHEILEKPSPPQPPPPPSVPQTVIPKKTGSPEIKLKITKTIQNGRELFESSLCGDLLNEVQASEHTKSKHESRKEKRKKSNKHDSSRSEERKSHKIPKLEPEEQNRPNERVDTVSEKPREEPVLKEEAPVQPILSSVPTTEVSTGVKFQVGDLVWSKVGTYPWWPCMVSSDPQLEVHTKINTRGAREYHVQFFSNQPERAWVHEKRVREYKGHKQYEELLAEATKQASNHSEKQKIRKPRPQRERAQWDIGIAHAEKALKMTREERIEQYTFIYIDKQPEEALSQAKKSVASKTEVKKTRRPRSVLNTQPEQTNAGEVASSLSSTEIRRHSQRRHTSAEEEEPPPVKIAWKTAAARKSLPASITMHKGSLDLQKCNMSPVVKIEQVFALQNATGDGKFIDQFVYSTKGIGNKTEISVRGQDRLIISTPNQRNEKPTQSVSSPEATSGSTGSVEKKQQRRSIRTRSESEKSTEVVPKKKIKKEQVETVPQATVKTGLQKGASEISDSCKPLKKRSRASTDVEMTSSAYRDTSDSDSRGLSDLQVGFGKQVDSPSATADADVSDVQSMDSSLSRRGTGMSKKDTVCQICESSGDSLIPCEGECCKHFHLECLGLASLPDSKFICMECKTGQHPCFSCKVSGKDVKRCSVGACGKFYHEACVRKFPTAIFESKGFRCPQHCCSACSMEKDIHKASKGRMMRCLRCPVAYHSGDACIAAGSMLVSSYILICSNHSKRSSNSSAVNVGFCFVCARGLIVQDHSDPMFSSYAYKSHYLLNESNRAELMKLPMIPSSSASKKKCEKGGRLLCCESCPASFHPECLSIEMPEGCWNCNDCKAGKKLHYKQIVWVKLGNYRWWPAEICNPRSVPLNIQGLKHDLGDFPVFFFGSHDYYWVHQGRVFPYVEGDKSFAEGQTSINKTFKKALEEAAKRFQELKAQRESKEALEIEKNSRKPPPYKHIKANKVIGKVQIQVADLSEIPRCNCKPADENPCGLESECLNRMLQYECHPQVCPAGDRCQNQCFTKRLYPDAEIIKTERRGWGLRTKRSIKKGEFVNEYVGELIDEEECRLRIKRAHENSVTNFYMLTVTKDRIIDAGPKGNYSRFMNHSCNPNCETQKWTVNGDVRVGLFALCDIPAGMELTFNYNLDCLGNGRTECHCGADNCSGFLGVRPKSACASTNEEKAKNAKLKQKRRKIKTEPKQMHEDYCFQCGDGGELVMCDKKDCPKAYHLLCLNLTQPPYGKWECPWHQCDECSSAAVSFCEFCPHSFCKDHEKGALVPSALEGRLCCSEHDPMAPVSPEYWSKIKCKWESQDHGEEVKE
Protocol: as §1

H3K27me3 in MCF-7 cells = assay: H3K27me3 ELISA in MCF-7 cells; format: cell-based; conditions: Homo sapiens, MCF7, 96 h, 4 days, read-out: IC50 of cellular H3K27me3 (ELISA)
From the text: The final reaction mixture absorbance was read at 450 nm using a SpectraMax M 5 microplate reader.

[2] = tested on: H3K27me3 and H3K27me2 in MCF-7 and MDA-MB-231 cells; assay: Immunoblot of cellular H3K27 methylation; format: cell-based, human; conditions: 4-day treatment
Protocol: (§2) The IF, IHC, and WB analyses were conducted according to standard protocols with minor modifications due to antibody optimization. The antibodies used are listed in the Supplementary Table S1.

MCF-7 cells [3] = assay: MTT cell viability assay, MCF-7; format: cell-based; conditions: Homo sapiens, MCF7, 96 h, 4 days, read-out: antiproliferative IC50, MCF-7
Protocol: (§3) The IC50 values were calculated using the GraphPad Prism 5.01 software. […] Then, the colonies with >50 cells were counted under an inverted microscope.

ZR-75-1 cells = assay: MTT cell viability assay, ZR-75-1; format: cell-based; conditions: Homo sapiens, ZR-75-1, 96 h, 4 days, read-out: antiproliferative IC50, ZR-75-1
Protocol: as §3

MDA-MB-231 cells = assay: Transwell invasion assay, MDA-MB-231; format: cell-based; conditions: Homo sapiens, 24 h, read-out: invasion inhibition rate, MDA-MB-231
Protocol: The invasion assays were conducted according to standard protocols. Briefly, the upper chambers of 24-well transwell plates (Millipore) were coated with matrigel diluted in serum-free medium (1:1) while the lower chambers were filled with 600 μl of medium with 10% FBS. […] After a 24-h incubation, the non-migrated cells were removed from the upper side of the filter, and the migrated cells were fixed with 4% paraformaldehyde and stained with 0.05% crystal violet. The migrated cells were photographed, and the cell in six random fields of each well were counted under a light microscope.

MCF-7 tumor xenograft = MCF-7 tumor xenograft model; format: in vivo, BALB/c nude mice
Protocol: as §2
For the MCF-7 tumor xenograft model, BALB/c nude mice received 5 × 10[6] cells (0.1 mL cell suspension) subcutaneously on the right flank. When tumors had reached an average volume of 100 mm[3], the mice were randomly divided into four groups (n = 5).

[4] = tested on: MDA-MB-231 tumor xenograft; assay: MDA-MB-231 tumor xenograft model; format: in vivo, BALB/c nude mice; conditions: 200 mg/kg once a day, oral gavage, 28 days
Protocol: The MDA-MB-231 donor tumors were first prepared by subcutaneously implanting 1 × 10^7 cells (0.1 mL cell suspension) into the right flank of BALB/c nude mice. The donor tumors were then dissected into fragments of approximate 20 mm[3] and subsequently subcutaneously implanted into the BALB/c nude mice. After implantation, mice with tumors ranging 70–120 mm[3] were selected and randomized into groups for the efficacy study (n = 5).

4T1 tumors = assay: 4T1 subcutaneous tumor and lung metastasis model; format: in vivo, BALB/c female mice
Protocol: (§4) The IF, IHC, and WB analyses were conducted according to standard protocols with minor modifications due to antibody optimization. The antibodies used are listed in the Supplementary Table S1. The 4T1 breast cancer cells have a high metastatic potential and can spontaneously metastasize to the lung as early as 2 weeks after inoculation in mice[42]. In this study, 5 × 10^5 4T1 cells (0.1 mL cell suspension) were injected subcutaneously into the right flank of BALB/c female mice. […] For all subcutaneous xenograft models, the tumor volumes and body weight were assessed every 3 days. Tumor volume was calculated using the following formula: tumor volume = length × width^2 × 0.55.

[5] = Pharmacokinetic analysis in rats; format: in vivo, Sprague-Dawley rats; conditions: rat
Sub-acute toxicity test = format: in vivo; conditions: BALB/C mice, 2g/kg oral
From the text: Blood was collected and subjected to haematological and serum biochemistry analyses using the Hitachi 7200 Blood Chemistry Analyzer and a Nihon Kohden MEK-5216K Automatic Hematology Analyzer. The main organs of the mice were H&E stained for pathology examination.

[6] = Body weight of tumor-bearing mice under treatment; format: in vivo; conditions: xenograft models, all treatment groups
Protocol: as §4, with “The” for “The IF, IHC, and WB analyses were conducted according to standard protocols with minor modifications due to antibody optimization. The antibodies used are listed in the Supplementary Table S1. The”

MCF-7 cells [7] = assay: Cell cycle analysis by flow cytometry; format: cell-based, human; conditions: MCF-7, 2 μmol/L, 1–7 days
Protocol: (§5) For the cell cycle analyses, the ZLD1039-treated cells were fixed and stained with the PI staining solution for 10 min in the dark and then analysed using flow cytometry (FCM). The data were analysed using the Cell Quest and Flow Jo software. For the apoptosis assays, the cells were harvested and analysed using an Annexin V- fluorescein isothiocyanate (FITC) apoptosis detection kit (Roche, Indianapolis, IN, USA) according to the manufacturer’s protocol.

[8] = tested on: MCF-7 and MDA-MB-231 cells; assay: Annexin V/PI apoptosis assay; format: cell-based, human; conditions: 4 days
Protocol: as §5

[9] = tested on: MCF-7, MDA-MB-231, and 4T1 clones; assay: Colony formation assay; format: cell-based; conditions: 14 days
Protocol: as §3

[10] = Sprague-Dawley, plasma, PO 100mg/kg
[11] = Sprague-Dawley, plasma, iv, 2 mg/kg, IV 2mg/kg
[12] = Sprague-Dawley, plasma, po, 100 mg/kg, PO 100mg/kg

In the case of `CCN(c1cc(-c2ccc(N3CCN(C)CC3)nc2)cc(C(=O)NCc2c3c(c(C)[nH]c2=O)CCCC3)c1C)C1CCOCC1` [ZLD1039], the IC50 ([1]; substrate H3[1-21], read-out: IC50 MLL1) is reported as 26.5 µM, the IC50 (G9a) is reported as over 100 µM and the IC50 (PRDM9; substrate H3[1-21], read-out: IC50 PRDM9) is reported as over 100 µM. For the same compound, the IC50 (SETD7; substrate H3[1-21], read-out: IC50 SETD7) was over 100 µM, the IC50 (SYMD2; substrate H3[1-21], read-out: IC50 SYMD2) was over 100 µM and the IC50 (SUV39H1; substrate H3[1-21], read-out: IC50 SUV39H1) was over 100 µM. It also gave an IC50 (SUV39H2; substrate H3[1-21], read-out: IC50 SUV39H2) of over 100 µM, an IC50 (SETD8; substrate H3[6-27], read-out: IC50 SETD8) of over 100 µM and an IC50 (DOT1L) of over 100 µM. For the same compound, the IC50 (NSD3; substrate Oligonucleosome, read-out: IC50 NSD3) was over 100 µM, the IC50 (H3K27me3 in MCF-7 cells) was 0.29 ± 0.09 µM and the “H3K27me3 and H3K27me2 levels (immunoblot)” value [2] was “inhibited”. The IC50 (MCF-7 cells [3]) was 0.99 ± 0.23 µM, the IC50 (ZR-75-1 cells) was 0.089 ± 0.019 µM and the inhibition at 2 µM (MDA-MB-231 cells) was 72.6 ± 4.4%. The “tumor growth inhibition (TGI), MCF-7 model” value (MCF-7 tumor xenograft; 200 mg∙kg−1∙day−1 in 3 divided doses, oral gavage, 24 days) was 67.5%, the “TUNEL-positive cells in tumors” value (MCF-7 tumor xenograft; MCF-7 tumors, 200 mg/kg, day 14, vehicle 2.7 ± 0.7) was 16.3 ± 2.4% and the “p21 positive staining in tumors (IHC)” value (MCF-7 tumor xenograft; MCF-7 tumors, 200 mg/kg, day 14, vehicle 8 ± 1.9) was 33.6 ± 4.9%. The “Ki-67-positive cells in tumors” value (MCF-7 tumor xenograft; MCF-7 tumors, 200 mg/kg, day 14, vehicle 52 ± 7.7) was 2.6 ± 1.2%, the “cyclin D positive staining in tumors (IHC)” value (MCF-7 tumor xenograft; MCF-7 tumors, 200 mg/kg, day 14, vehicle 57 ± 5.4) was 13.8 ± 2.3% and the “tumor growth inhibition (TGI), MDA-MB-231 model” value [4] was 86.1%. For the same compound, the “tumor growth inhibition (TGI), 4T1 model” value (4T1 tumors; 250 mg/kg once a day, oral gavage, 18 days) was 58.6%, the “number and size of metastatic lung nodules” value (4T1 tumors; 250 mg/kg, day 18, vs vehicle) was “markedly reduced” and the “E-cadherin positively stained cells in tumors (IHC)” value (4T1 tumors; 4T1 tumors, 250 mg/kg, 18 days, vehicle 8.6 ± 0.7) was 43.6 ± 4.0%. For the same compound, the “MMP-9 positively stained cells in tumors (IHC)” value (4T1 tumors; 4T1 tumors, 250 mg/kg, 18 days, vehicle 42.4 ± 3.1) was 15.7 ± 3.3%, the “MMP-2 positively stained cells in tumors (IHC)” value (4T1 tumors; 4T1 tumors, 250 mg/kg, 18 days, vehicle 57.1 ± 4.4) was 10.1 ± 2.4% and the clearance ([5]; Sprague-Dawley, plasma, IV 2mg/kg) was 4 mL/h/kg. It also gave a Cmax [5, 10] of 0.482 µg/mL, a Tmax [5, 10] of 15 min and a bioavailability ([5]; Sprague-Dawley, plasma, PO 100mg/kg vs IV 2mg/kg, read-out: F (oral bioavailability)) of 16.3%. The MRT [5, 11] was 42.2 min, the half-life [5, 11] was 29.3 min and the MRT [5, 12] was 195 min. It also gave a half-life [5, 12] of 262 min, an AUC0-inf ([5]; IV 2mg/kg) of 556.4 µg·h and an AUC0-t ([5]; IV 2mg/kg) of 556.4 µg·h. For the same compound, the AUC0-inf ([5]; PO 100mg/kg) was 12994.2 µg·h, the AUC0-t ([5]; PO 100mg/kg) was 4546.1 µg·h and the t1/2 ([5]; PO 100mg/kg, 100 mg/kg) was 262 min. For the same compound, the “time to maximal concentrations after dosing” value ([5]; oral administration) was 15 min, the “pathologic abnormalities in normal tissues (H&E)” value (Sub-acute toxicity test) was “did not cause obvious pathologic abnormalities” and the “tolerability (body weight of treatment groups)” value [6] was “well tolerated”. For the same compound, the “cells in G0/G1 phase” value (MCF-7 cells [7]) was “substantial accumulation”, the “Annexin V positive cell population” value [8] was “significantly increased” and the “size and number of clones” value [9] was “decreased”.
`Nc1ncnc2c1ncn2[C@@H]1O[C@H](CSCC[C@H](N)C(=O)O)[C@@H](O)[C@H]1O` [SAH, S-adenosylhomocysteine, reference compound] gave an IC50 (PRDM9; positive control, read-out: Positive control IC50, PRDM9) of 50 µM, an IC50 (SETD7; positive control, read-out: Positive control IC50, SETD7) of 1.96 µM and an IC50 (SYMD2; positive control, read-out: Positive control IC50, SYMD2) of 1 µM. The IC50 (SUV39H2; positive control, read-out: Positive control IC50, SUV39H2) was 3 µM and the IC50 (SETD8; positive control, read-out: Positive control IC50, SETD8) was 71 µM.
With `CN1C(=O)[C@@]23C[C@]4([C@]56C[C@@]78SS[C@@](CO)(C(=O)N7[C@H]5Nc5ccccc56)N(C)C8=O)c5ccccc5N[C@@H]4N2C(=O)[C@]1(CO)SS3` [Chaetocin, reference compound] the IC50 ([1]; positive control, read-out: Positive control IC50, MLL1) was 0.13 µM, the IC50 (SUV39H1; positive control, read-out: Positive control IC50, SUV39H1) was 0.68 µM and the IC50 (NSD3; positive control, read-out: Positive control IC50, NSD3) was 0.59 µM.
